Assay results taken from PMC5803145, “Study on the Structural Effect of Maltoligosaccharides on Cytochrome c Complexes Stabilities by Native Mass Spectrometry” (Natural Products and Bioprospecting, 2018).

Biological target: T1, Cytochrome c (Cyt c) from equine / horse heart (Equus caballus, UniProt P00004)
T1 construct: gene CYCS; mature heme-containing protein
Experiment: native ESI-MS, deconvoluted peak ratios
Assay type: binding
Details: aqueous solution, 0.5 uM Cyt c, 3-7 uM ligand, room temperature, 1 h; stepwise constant of the 1:1 complex
Source text: native ESI-MS, deconvoluted peak ratios on Cytochrome c (Cyt c) from equine / horse heart

T1 sequence (P00004 2-105): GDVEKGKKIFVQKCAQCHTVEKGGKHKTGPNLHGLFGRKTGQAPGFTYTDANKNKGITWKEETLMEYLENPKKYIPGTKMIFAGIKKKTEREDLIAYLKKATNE

SMILES	Ka,1 (10^4 L mol^-1)
OC[C@H]1O[C@H](O[C@H]2[C@H](O)[C@@H](O)C(O)O[C@@H]2CO)[C@H](O)[C@@H](O)[C@@H]1O (stereo partly drawn) [Mal II, maltose]	3.227 x 10^4 (RSD 2.9%)
OC[C@H]1O[C@H](O[C@H]2[C@H](O)[C@@H](O)[C@@H](O[C@H]3[C@H](O)[C@@H](O)[C@@H](O[C@H]4[C@H](O)[C@@H](O)C(O)O[C@@H]4CO)O[C@@H]3CO)O[C@@H]2CO)[C@H](O)[C@@H](O)[C@@H]1O (stereo partly drawn) [Mal IV, maltotetraose]	3.279 x 10^4 (RSD 5.6%)
OC[C@H]1O[C@H](O[C@H]2[C@H](O)[C@@H](O)[C@@H](O[C@H]3[C@H](O)[C@@H](O)[C@@H](O[C@H]4[C@H](O)[C@@H](O)[C@@H](O[C@H]5[C@H](O)[C@@H](O)[C@@H](O[C@H]6[C@H](O)[C@@H](O)C(O)O[C@@H]6CO)O[C@@H]5CO)O[C@@H]4CO)O[C@@H]3CO)O[C@@H]2CO)[C@H](O)[C@@H](O)[C@@H]1O (stereo partly drawn) [Mal VI, maltohexaose]	2.438 x 10^4 (RSD 2.5%)

The remaining lines, values ahead:

Ka,1 (10^4 L mol^-1)	SMILES
3.842 x 10^4 (RSD 2.5%)	OC[C@H]1O[C@H](O[C@H]2[C@H](O)[C@@H](O)[C@@H](O[C@H]3[C@H](O)[C@@H](O)C(O)O[C@@H]3CO)O[C@@H]2CO)[C@H](O)[C@@H](O)[C@@H]1O (stereo partly drawn) [Mal III, maltotriose]
2.654 x 10^4 (RSD 0.80%)	OC[C@H]1O[C@H](O[C@H]2[C@H](O)[C@@H](O)[C@@H](O[C@H]3[C@H](O)[C@@H](O)[C@@H](O[C@H]4[C@H](O)[C@@H](O)[C@@H](O[C@H]5[C@H](O)[C@@H](O)C(O)O[C@@H]5CO)O[C@@H]4CO)O[C@@H]3CO)O[C@@H]2CO)[C@H](O)[C@@H](O)[C@@H]1O (stereo partly drawn) [Mal V, maltopentaose]
2.205 x 10^4 (RSD 1.6%)	OC[C@H]1O[C@H](O[C@H]2[C@H](O)[C@@H](O)[C@@H](O[C@H]3[C@H](O)[C@@H](O)[C@@H](O[C@H]4[C@H](O)[C@@H](O)[C@@H](O[C@H]5[C@H](O)[C@@H](O)[C@@H](O[C@H]6[C@H](O)[C@@H](O)[C@@H](O[C@H]7[C@H](O)[C@@H](O)C(O)O[C@@H]7CO)O[C@@H]6CO)O[C@@H]5CO)O[C@@H]4CO)O[C@@H]3CO)O[C@@H]2CO)[C@H](O)[C@@H](O)[C@@H]1O (stereo partly drawn) [Mal VII, maltoheptaose]
